PMC4577731, “Discovery, synthesis and biochemical profiling of purine-2,6-dione derivatives as inhibitors of the human poly(A)-selective ribonuclease Caf1” (Bioorganic & Medicinal Chemistry Letters, 2015)
Like-named read-outs stand apart in the source and are kept apart here.

Key:
PARN = target: T1, PARN (Homo sapiens, UniProt O95453); experiment: Fluorescence-based biochemical assay of PARN ribonuclease activity; details: for IC50: fluorescence-based biochemical assay, ± standard error of the mean (n = 3); for inhibition of PARN ribonuclease activity (in words): Fig. 3, compounds used at 10 μM (5h–k)
T1 sequence (O95453 1-639): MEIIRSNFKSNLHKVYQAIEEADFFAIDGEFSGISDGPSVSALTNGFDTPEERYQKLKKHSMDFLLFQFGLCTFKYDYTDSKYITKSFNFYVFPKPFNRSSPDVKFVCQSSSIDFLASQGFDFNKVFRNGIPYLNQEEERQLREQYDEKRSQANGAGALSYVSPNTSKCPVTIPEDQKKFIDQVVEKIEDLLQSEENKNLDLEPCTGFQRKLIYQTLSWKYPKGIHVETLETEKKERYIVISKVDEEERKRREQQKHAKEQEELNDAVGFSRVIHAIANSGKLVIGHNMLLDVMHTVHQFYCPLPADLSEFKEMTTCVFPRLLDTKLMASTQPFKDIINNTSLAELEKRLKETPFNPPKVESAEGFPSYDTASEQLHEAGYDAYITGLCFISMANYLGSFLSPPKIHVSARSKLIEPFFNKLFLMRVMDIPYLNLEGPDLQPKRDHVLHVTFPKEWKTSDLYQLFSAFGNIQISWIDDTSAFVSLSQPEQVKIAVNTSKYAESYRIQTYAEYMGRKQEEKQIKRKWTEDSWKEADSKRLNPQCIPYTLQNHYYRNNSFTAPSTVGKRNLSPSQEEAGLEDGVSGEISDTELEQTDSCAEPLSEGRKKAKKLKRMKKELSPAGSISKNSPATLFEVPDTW
Experimental: The selectivity of the compounds was determined by comparing their activities against Caf1 and two related deadenylase enzymes: the PARN ribonuclease, which has a conserved nuclease domain similar to that of Caf1, and Ccr4, whose biological function is related to Caf1, but which contains a dissimilar EEP-type nuclease domain.[22]
Error bars represent the standard deviation.

Caf1 = Caf1 (Homo sapiens, UniProt Q9UIV1); experiment: Fluorescence-based biochemical assay of Caf1 ribonuclease activity
Experimental: Following LC–MS and solubility analysis, five compounds were evaluated for their ability to inhibit Caf1 activity using a fluorescence-based biochemical assay (Fig. 1B).[22]
Reactions contained no enzyme (control), complete reactions (enzyme) or complete reactions in the presence of the indicated compound. […] Error bars represent the standard deviation.

[1] = read-out: IC50 (Caf1), fluorescence-based biochemical assay, ± standard error of the mean (n = 3)

Sequence of Caf1 (Q9UIV1 whole entry): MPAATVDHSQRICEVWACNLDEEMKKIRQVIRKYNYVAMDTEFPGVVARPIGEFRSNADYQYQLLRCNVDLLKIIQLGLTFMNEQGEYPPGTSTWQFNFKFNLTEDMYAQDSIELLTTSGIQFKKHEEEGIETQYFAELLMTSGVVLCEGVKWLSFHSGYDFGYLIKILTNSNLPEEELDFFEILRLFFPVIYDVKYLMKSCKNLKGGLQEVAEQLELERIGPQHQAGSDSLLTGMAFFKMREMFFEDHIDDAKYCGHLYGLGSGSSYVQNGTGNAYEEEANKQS

SMILES | IC50 (PARN) [µM] | IC50 (Caf1; [1]) [µM] | other results
O=c1[nH]c2ncn(Cc3ccccc3)c2c(=O)n1O [Compound 5a] | 84.1 ± 6.7 | 10.4 ± 0.4 | IC50 (Caf1): 22.8 ± 0.1 µM
O=c1[nH]c2ncn(Cc3ccccn3)c2c(=O)n1O [Compound 5c] | 119 ± 25 | 10.6 ± 2.7 | –
O=c1[nH]c2ncn(Cc3cccnc3)c2c(=O)n1O [Compound 5d] | 125 ± 32 | 6.6 ± 0.7 | –
O=c1[nH]c2ncn(Cc3ccncc3)c2c(=O)n1O [Compound 5e] | 245 ± 20 | – | –
O=c1[nH]c2ncn(CCCc3ccccc3)c2c(=O)n1O [Compound 5f] | – | 13.3 ± 2.3 | –
CCCCOCCCn1cnc2[nH]c(=O)n(O)c(=O)c21 [Compound 5g] | – | 20.6 ± 5.8 | –
O=c1[nH]c2ncn(CCc3cccs3)c2c(=O)n1O [Compound 5h] | – | 3.6 ± 1.1 | inhibition of PARN ribonuclease activity (in words) (PARN): also inhibited the related deadenylase PARN
O=c1[nH]c2ncn(CCc3ccccc3)c2c(=O)n1O [Compound 5j] | – | – | inhibition of PARN ribonuclease activity (in words) (PARN): also inhibited the related deadenylase PARN
O=c1[nH]c2ncn(CCc3ccccn3)c2c(=O)n1O [Compound 5k] | – | 4 ± 1.1 | inhibition of PARN ribonuclease activity (in words) (PARN): also inhibited the related deadenylase PARN
Cn1c(=O)n(O)c(=O)c2c1ncn2CCc1ccccc1 [Compound 8a] | – | 9.3 ± 1.7 | –
O=c1c2c(ncn2CCc2ccccc2)n(Cc2ccccc2)c(=O)n1O [Compound 8i] | – | 14.5 ± 0.9 | –
CN(C)CCCn1c(=O)n(O)c(=O)c2c1ncn2CCc1ccccc1 [Compound 8j] | 23.9 ± 3.7 | 0.59 ± 0.11 | activity versus PARN (in words) (PARN; Table 2, Fig. 3, 3 μM): displayed reduced activity versus PARN; increased activity against Caf1 compared to compound 5a (Caf1): > 10 fold; potency against Caf1 relative to all previously identified compounds (Caf1; compared with the inhibitors of ref 22): > 20 fold
O=c1c2c(ncn2CCc2ccccc2)n(CCN2CCOCC2)c(=O)n1O [Compound 8k] | – | 8.7 ± 0.3 | –
O=c1[nH]c2cnn(-c3ccccc3)c2c(=O)n1O [NSC-104148] | – | 38.6 ± 2.79 | –
O=c1[nH]c2ncsc2c(=O)n1O [NSC-116567] | – | 28.7 ± 3.8 | –
O=c1[nH]c2cccnc2c(=O)n1O [NSC-193557] | – | 525 ± 13.9 | –
